Assay results from the Kinase Knowledgebase extract (Sharma et al. 2016).

Tests used:
[1] = molecular target: EGFR (murine) (UniProt P00533); settings: nih3t3
[2] = molecular target: EGFR (UniProt P00533)
Sequence of EGFR (P00533 whole entry, looked up): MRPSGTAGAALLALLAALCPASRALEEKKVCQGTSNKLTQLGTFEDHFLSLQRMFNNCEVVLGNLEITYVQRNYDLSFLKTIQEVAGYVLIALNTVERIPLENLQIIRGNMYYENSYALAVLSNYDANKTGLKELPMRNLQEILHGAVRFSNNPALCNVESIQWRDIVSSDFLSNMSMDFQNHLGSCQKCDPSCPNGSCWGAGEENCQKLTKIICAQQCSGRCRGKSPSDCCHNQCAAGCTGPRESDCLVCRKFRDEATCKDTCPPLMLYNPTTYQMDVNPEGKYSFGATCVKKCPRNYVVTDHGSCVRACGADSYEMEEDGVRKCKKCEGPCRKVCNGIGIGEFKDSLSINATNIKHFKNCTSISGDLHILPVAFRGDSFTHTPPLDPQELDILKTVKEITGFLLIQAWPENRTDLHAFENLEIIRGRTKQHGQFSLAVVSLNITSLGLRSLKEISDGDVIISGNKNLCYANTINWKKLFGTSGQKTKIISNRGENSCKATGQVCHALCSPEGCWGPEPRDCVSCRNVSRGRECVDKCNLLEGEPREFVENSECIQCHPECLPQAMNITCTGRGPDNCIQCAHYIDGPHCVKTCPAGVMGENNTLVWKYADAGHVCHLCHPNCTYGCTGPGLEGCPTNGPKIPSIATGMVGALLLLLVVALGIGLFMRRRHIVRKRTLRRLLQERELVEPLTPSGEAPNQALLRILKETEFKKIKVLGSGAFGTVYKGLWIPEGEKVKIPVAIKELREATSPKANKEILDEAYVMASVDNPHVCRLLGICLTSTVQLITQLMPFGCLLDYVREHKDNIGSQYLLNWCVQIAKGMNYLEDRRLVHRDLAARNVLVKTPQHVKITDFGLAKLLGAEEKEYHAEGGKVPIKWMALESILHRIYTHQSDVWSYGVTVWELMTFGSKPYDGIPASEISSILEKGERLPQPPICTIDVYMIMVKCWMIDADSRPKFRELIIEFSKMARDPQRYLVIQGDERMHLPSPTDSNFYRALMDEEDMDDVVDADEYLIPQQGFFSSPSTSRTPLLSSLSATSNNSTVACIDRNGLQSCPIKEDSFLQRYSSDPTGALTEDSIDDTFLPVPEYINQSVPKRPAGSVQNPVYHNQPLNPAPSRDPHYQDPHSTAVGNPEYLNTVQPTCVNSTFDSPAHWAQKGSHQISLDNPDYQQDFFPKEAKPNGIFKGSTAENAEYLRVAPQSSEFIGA

Sequence of EGFR (murine) (P00533 whole entry, looked up): as above

SMILES	IC50 [1] [µM]	IC50 [2] [µM]
Cc1[nH]c(/C=C2\C(=O)Nc3cccc(CCOc4cccc(C(C)C)c4)c32)c(C)c1CCCN(C)C	–	> 100
CC(C)(C)c1cc(CC2C(=O)Nc3ccc(Cl)cc32)cc(Br)c1O (configuration not stated)	–	> 100
O=C1Cc2c(CCOC(=O)Nc3ccccc3-c3ccccc3)cccc2N1	–	> 100
Cc1[nH]c(/C=C2/C(=O)Nc3cc(-c4cccnc4)ccc32)c(C)c1CCCN(C)C	–	12.1
O=C1Nc2cccc(CCO)c2/C1=C/c1ccc2[nH]ccc2c1	–	> 100
Cc1[nH]c(/C=C2\C(=O)Nc3cccc(CCO)c32)c(C)c1CCCN(C)C	25.3	> 100
COc1ccc(/C=C2\C(=O)Nc3cccc(CCO)c32)cc1-c1cccs1	–	> 100
COc1ccc(CC2C(=O)Nc3ccc(F)cc32)cc1C1CCCC1 (configuration not stated)	–	> 100
O=C1Nc2cccc(CCO)c2C1Cc1ccc(Br)cc1 (configuration not stated)	–	> 100
Cc1[nH]c(/C=C2/C(=O)Nc3cc(-c4cccs4)ccc32)c(C)c1CCCN(C)C	–	> 100
CCOCCc1cccc2c1CC(=O)N2	–	> 100
COc1cccc(-c2ccc3c(c2)NC(=O)C3Cc2ccccc2O)c1 (configuration not stated)	> 50	> 100
O=C1Nc2cc(-c3cccnc3)ccc2/C1=C\c1ccccc1O	–	> 100
Cc1[nH]c(CC2C(=O)Nc3ccc(Cl)cc32)c(C)c1CCCN(C)C (configuration not stated)	–	> 100
O=C1Cc2c(CCOC(=O)Nc3ccccc3)cccc2N1	–	> 100
CC(C)c1cccc(OCCc2cccc3c2CC(=O)N3)c1	–	> 100
COc1ccc(CC2C(=O)Nc3cc(-c4ccccc4)ccc32)c(O)c1 (configuration not stated)	> 50	> 100
O=C1Cc2c(CCOc3cccc(-c4ccccc4)c3)cccc2N1	–	> 100
CC(C)c1ccccc1OCCc1cccc2c1CC(=O)N2	–	> 100
COc1cc(C)c(CC2C(=O)Nc3ccccc32)cc1C(C)C (configuration not stated)	–	> 100
O=C1Cc2c(CCOC(=O)NS(=O)(=O)c3ccccc3)cccc2N1	–	> 100
Cc1cccc(/C=C2\C(=O)Nc3cccc(CCO)c32)n1	–	> 100
O=C1Nc2cccc(CCO)c2C1Cc1ccccc1 (configuration not stated)	–	> 100
COc1ccc(/C(=C2/C(=O)Nc3ccccc32)c2[nH]c(C)cc2C)cc1	> 50	–
COCCc1cccc2c1CC(=O)N2	–	> 100

Continued, values first:

IC50 [1] [µM]	IC50 [2] [µM]	SMILES
> 50	> 100	O=C1Nc2ccccc2C1Cc1ccc2[nH]ccc2c1 (configuration not stated)
> 50	> 100	Cc1[nH]c(/C=C2\C(=O)Nc3cccc(CCOc4ccc(C(C)C)cc4)c32)c(C)c1CCC(=O)O
–	> 100	O=C1Nc2cc(-c3cccs3)ccc2/C1=C\c1ccccc1O
> 50	> 100	O=C1Nc2ccc(F)cc2C1Cc1ccc(O)c(C2CCCC2)c1 (configuration not stated)
> 50	> 100	Cc1ccc(O)c(/C=C2\C(=O)Nc3cccc(CCO)c32)n1
–	> 100	CCNC(=O)OCCc1cccc2c1CC(=O)N2
3	> 100	O=C1Nc2cccc(CCO)c2/C1=C/c1ccccn1
–	> 100	O=C(Nc1ccc2c(c1)NC(=O)C2Cc1cc(Cl)cc(Cl)c1O)C1CCCC1 (configuration not stated)
–	> 100	O=C1Cc2c(CCOC(=O)NC3CCCCC3)cccc2N1
–	48.7	COc1cccc(-c2ccc3c(c2)NC(=O)C3Cc2[nH]c(C)c(CCCN(C)C)c2C)c1 (configuration not stated)
–	> 100	O=C(Nc1ccc2c(c1)NC(=O)C2Cc1cc(Cl)ccc1O)C1CCCC1 (configuration not stated)
–	> 100	COc1ccc(-c2ccc3c(c2)NC(=O)C3Cc2[nH]c(C)c(CCCN(C)C)c2C)cc1 (configuration not stated)
> 50	> 100	Cc1cccc2c1C(Cc1ccc3[nH]ccc3c1)C(=O)N2 (configuration not stated)
–	> 100	Cc1[nH]c(CC2C(=O)Nc3ccc(Br)cc32)c(C)c1CCCN(C)C (configuration not stated)
> 50	> 100	Cc1[nH]c(CC2C(=O)Nc3ccccc32)c(C)c1CCCN(C)C (configuration not stated)
–	> 100	CC(C)NC(=O)OCCc1cccc2c1CC(=O)N2
–	> 100	COc1ccc(/C=C2/C(=O)Nc3cc(-c4cccnc4)ccc32)cc1-c1cccs1
–	> 100	CC(C)c1cc(CC2C(=O)Nc3ccc(Cl)cc32)cc(C(C)C)c1OCCN1CCOCC1 (configuration not stated)
> 50	> 100	Cc1cccc(CC2C(=O)Nc3cccc(CCO)c32)n1 (configuration not stated)

IC50 [1] [µM]	IC50 [2] [µM]	SMILES
–	> 100	O=C1Nc2cc(-c3ccsc3)ccc2/C1=C\c1ccccc1O
–	> 100	CC(C)c1ccc(OCCc2cccc3c2CC(=O)N3)cc1
–	> 100	COc1ccc(/C=C2/C(=O)Nc3cc(-c4ccsc4)ccc32)cc1-c1cccs1
–	> 100	CC(C)(C)NC(=O)OCCc1cccc2c1CC(=O)N2
> 50	> 100	COc1ccc(CC2C(=O)Nc3cc(NC(C)=O)ccc32)cc1-c1cccs1 (configuration not stated)
–	> 100	O=C1Cc2c(CCOc3cncc(Cl)c3)cccc2N1
–	> 100	O=C1Nc2cccc(CCO)c2/C1=C\c1ccc(Br)cc1
–	> 100	COc1ccccc1-c1ccc2c(c1)NC(=O)C2Cc1[nH]c(C)c(CCCN(C)C)c1C (configuration not stated)
> 50	> 100	COc1ccc(CC2C(=O)Nc3ccc(CCN4CCOCC4)cc32)cc1-c1ccsc1 (configuration not stated)
–	> 100	CC(=O)Nc1ccc2c(c1)NC(=O)C2Cc1ccc(OCCN2CCOCC2)c(C2CCCCC2)c1 (configuration not stated)
> 50	> 100	COc1c(C(C)C)cc(CC2C(=O)Nc3ccccc32)cc1C(C)C (configuration not stated)
–	> 100	O=C1Nc2cc(-c3ccccc3)ccc2C1Cc1cc(Br)ccc1O (configuration not stated)
–	> 100	O=C1Cc2c(CCOC(=S)Nc3ccccc3)cccc2N1
–	> 100	COc1ccc(-c2cc(CC3C(=O)Nc4ccccc43)c(O)cc2OC)cc1 (configuration not stated)
–	> 100	COc1ccc(/C=C2/C(=O)Nc3cc(-c4cccs4)ccc32)cc1-c1cccs1
–	> 100	COc1ccc(OCCc2cccc3c2CC(=O)N3)cc1
–	> 100	COc1ccc2c(c1)NC(=O)C2Cc1ccc(OC)c(-c2ccsc2)c1 (configuration not stated)
> 50	> 100	O=C1Nc2cc(-c3ccccc3)ccc2C1Cc1cccc(F)c1O (configuration not stated)
